Measured values as given in publication PMC5218480 (PLoS ONE, 2017).

System: MV-4-11 cells
Assay: Gene expression microarray analysis (Affymetrix PrimeView) and GSEA
Assay type: cell-based, human
Set-up: RFU PODN (11730768_x_at) / Fold change /veh PODN (11730768_x_at) / RFU LINC00158 (11744669_a_at) / Fold change /veh LINC00158 (11744669_a_at) / RFU DUSP10 (11751237_a_at) / Fold change /veh DUSP10 (11751237_a_at) / RFU ID3 (11757404_x_at) / Fold change /veh ID3 (11757404_x_at) / RFU PLEKHG5 (11737974_s_at) / Fold change /veh PLEKHG5 (11737974_s_at) / RFU LRRC4B (11730491_at) / Fold change /veh LRRC4B (11730491_at) / RFU GIMAP4 (11747438_a_at) / Fold change /veh GIMAP4 (11747438_a_at) / RFU KRT8 (11758183_x_at) / Fold change /veh KRT8 (11758183_x_at) / RFU CNN1 (11734310_a_at) / Fold change /veh CNN1 (11734310_a_at) / RFU VPS37D (11726825_at) / Fold change /veh VPS37D (11726825_at) / RFU C10orf10 (11716522_x_at) / Fold change /veh C10orf10 (11716522_x_at) / RFU KIR2DL2 /// KIR2DL4 /// KIR2DL5A /// KIR2DL5B /// KIR2DS1 /// KIR2DS2 /// KIR2DS3 /// KIR2DS4 /// KIR3DL3 /// KIR3DL3 /// KIR3DS1 (11738374_at) / Fold change /veh KIR2DL2 /// KIR2DL4 /// KIR2DL5A /// KIR2DL5B /// KIR2DS1 /// KIR2DS2 /// KIR2DS3 /// KIR2DS4 /// KIR3DL3 /// KIR3DL3 /// KIR3DS1 (11738374_at) / RFU C1QL1 (11718748_at) / Fold change /veh C1QL1 (11718748_at) / RFU TMPRSS4 (11747572_a_at) / Fold change /veh TMPRSS4 (11747572_a_at) / RFU HAMP (11756126_x_at) / Fold change /veh HAMP (11756126_x_at) / RFU RNFT2 (11725882_a_at) / Fold change /veh RNFT2 (11725882_a_at) / RFU NR4A2 (11747474_a_at) / Fold change /veh NR4A2 (11747474_a_at) / RFU ABCC12 (11746883_a_at) / Fold change /veh ABCC12 (11746883_a_at) / RFU TMEM136 (11760407_x_at) / Fold change /veh TMEM136 (11760407_x_at) / RFU CLDN22 /// WWC2 (11732394_at) / Fold change /veh CLDN22 /// WWC2 (11732394_at) / RFU HLA-DPB1 (11760878_x_at) / Fold change /veh HLA-DPB1 (11760878_x_at) / RFU SPINT1 (11716480_a_at) / Fold change /veh SPINT1 (11716480_a_at) / RFU GAP43 (11754022_s_at) / Fold change /veh GAP43 (11754022_s_at) / RFU A4GNT (11735810_at) / Fold change /veh A4GNT (11735810_at) / RFU PRB3 (11715151_x_at) / Fold change /veh PRB3 (11715151_x_at) / RFU TUBB4B (11761932_at) / Fold change /veh TUBB4B (11761932_at) / RFU CAPN14 (11732068_a_at) / Fold change /veh CAPN14 (11732068_a_at) / RFU TMCC2 (11721928_a_at) / Fold change /veh TMCC2 (11721928_a_at) / RFU IRGQ (11745062_a_at) / Fold change /veh IRGQ (11745062_a_at) / RFU FAM174B (11720279_a_at) / Fold change /veh FAM174B (11720279_a_at) / RFU TMPRSS4 (11748680_a_at) / Fold change /veh TMPRSS4 (11748680_a_at) / RFU FAM212B (11763350_a_at) / Fold change /veh FAM212B (11763350_a_at) / RFU PLEKHG5 (11743358_a_at) / Fold change /veh PLEKHG5 (11743358_a_at) / RFU ZSCAN30 (11745921_a_at) / Fold change /veh ZSCAN30 (11745921_a_at) / RFU CMKLR1 (11741424_a_at) / Fold change /veh CMKLR1 (11741424_a_at) / RFU LOC101060620 /// MAPK8IP1 (11723275_at) / Fold change /veh LOC101060620 /// MAPK8IP1 (11723275_at) / RFU SPTSSB (11747773_x_at) / Fold change /veh SPTSSB (11747773_x_at) / RFU PRSS12 (11739890_at) / Fold change /veh PRSS12 (11739890_at) / RFU BIN1 (11741810_x_at) / Fold change /veh BIN1 (11741810_x_at) / RFU WNT11 (11732464_a_at) / Fold change /veh WNT11 (11732464_a_at) / RFU C10orf10 (11716521_a_at) / Fold change /veh C10orf10 (11716521_a_at) / RFU C5orf56 (11738089_at) / Fold change /veh C5orf56 (11738089_at) / RFU CYB561 (11721691_x_at) / Fold change /veh CYB561 (11721691_x_at) / RFU ANKRD19P (11752326_a_at) / Fold change /veh ANKRD19P (11752326_a_at) / RFU OR2T12 /// OR2T33 /// OR2T8 (11738714_s_at) / Fold change /veh OR2T12 /// OR2T33 /// OR2T8 (11738714_s_at) / RFU VCAN (11748164_a_at) / Fold change /veh VCAN (11748164_a_at) / RFU JSRP1 (11732532_at) / Fold change /veh JSRP1 (11732532_at) / RFU KRTAP10-11 (11738290_x_at) / Fold change /veh KRTAP10-11 (11738290_x_at) / RFU MYO3A (11730013_a_at) / Fold change /veh MYO3A (11730013_a_at) / RFU EBF3 (11725865_a_at) / Fold change /veh EBF3 (11725865_a_at) / RFU CAMK2N1 (11719241_x_at) / Fold change /veh CAMK2N1 (11719241_x_at) / RFU C5orf56 (11738088_a_at) / Fold change /veh C5orf56 (11738088_a_at) / RFU OLFML3 (11715873_a_at) / Fold change /veh OLFML3 (11715873_a_at) / RFU LOC100653217 /// NTM (11731650_a_at) / Fold change /veh LOC100653217 /// NTM (11731650_a_at) / RFU MAPK11 (11762145_a_at) / Fold change /veh MAPK11 (11762145_a_at) / RFU FIZ1 (11724087_x_at) / Fold change /veh FIZ1 (11724087_x_at) / RFU OASL (11726364_x_at) / Fold change /veh OASL (11726364_x_at) / RFU SOX15 (11748057_x_at) / Fold change /veh SOX15 (11748057_x_at) / RFU CD79A (11719716_a_at) / Fold change /veh CD79A (11719716_a_at) / RFU HIST1H1D (11736915_at) / Fold change /veh HIST1H1D (11736915_at) / RFU CASKIN2 (11723855_a_at) / Fold change /veh CASKIN2 (11723855_a_at) / RFU LOC730098 (11760151_x_at) / Fold change /veh LOC730098 (11760151_x_at) / RFU OR4N2 (11742367_at) / Fold change /veh OR4N2 (11742367_at) / RFU PRRT2 (11749266_a_at) / Fold change /veh PRRT2 (11749266_a_at) / RFU SNX32 (11753110_a_at) / Fold change /veh SNX32 (11753110_a_at) / RFU CDHR5 (11726645_a_at) / Fold change /veh CDHR5 (11726645_a_at) / RFU RCAN1 (11760418_a_at) / Fold change /veh RCAN1 (11760418_a_at) / RFU FAM167A (11723789_a_at) / Fold change /veh FAM167A (11723789_a_at) / RFU FAM26E (11764081_at) / Fold change /veh FAM26E (11764081_at) / RFU ISYNA1 (11749810_s_at) / Fold change /veh ISYNA1 (11749810_s_at) / RFU ACY1 (11761880_at) / Fold change /veh ACY1 (11761880_at) / RFU 11764098_at / Fold change /veh 11764098_at / RFU SAMD14 (11745864_x_at) / Fold change /veh SAMD14 (11745864_x_at) / RFU NPB (11741838_a_at) / Fold change /veh NPB (11741838_a_at) / RFU TMPRSS6 (11731388_a_at) / Fold change /veh TMPRSS6 (11731388_a_at) / RFU KRTAP10-2 (11738614_at) / Fold change /veh KRTAP10-2 (11738614_at) / RFU ARHGAP8 /// PRR5-ARHGAP8 (11727945_x_at) / Fold change /veh ARHGAP8 /// PRR5-ARHGAP8 (11727945_x_at) / RFU KRTAP5-7 /// NADSYN1 (11734609_at) / Fold change /veh KRTAP5-7 /// NADSYN1 (11734609_at) / RFU RASL12 (11751679_a_at) / Fold change /veh RASL12 (11751679_a_at) / RFU CDKN2B (11736163_a_at) / Fold change /veh CDKN2B (11736163_a_at) / RFU PRF1 (11729649_at) / Fold change /veh PRF1 (11729649_at) / RFU, ZNF638 /// ZNF638-IT1 / Fold change vs veh, ZNF638 /// ZNF638-IT1 / RFU, PANK3 / Fold change vs veh, PANK3 / RFU, SH3YL1 / Fold change vs veh, SH3YL1 / RFU, ZEB2 / Fold change vs veh, ZEB2 / RFU, NRIP1 / Fold change vs veh, NRIP1 / RFU, PTTG1IP / Fold change vs veh, PTTG1IP / RFU, CAPN2 / Fold change vs veh, CAPN2 / RFU, MED14 / Fold change vs veh, MED14 / RFU, SNORA58 / Fold change vs veh, SNORA58 / RFU, C1orf63 / Fold change vs veh, C1orf63 / RFU, LRRFIP1 / Fold change vs veh, LRRFIP1 / RFU, NDUFAF7 / Fold change vs veh, NDUFAF7 / RFU, SLC12A2 / Fold change vs veh, SLC12A2 / RFU, IBTK / Fold change vs veh, IBTK / RFU, ESF1 / Fold change vs veh, ESF1 / Fold change vs veh, TMEM50B / RFU, TAOK1 / Fold change vs veh, TAOK1 / RFU, ACBD3 / Fold change vs veh, ACBD3 / RFU, TMA16 / Fold change vs veh, TMA16 / RFU, RWDD3 / Fold change vs veh, RWDD3 / RFU, BCAT1 / Fold change vs veh, BCAT1 / RFU, EDEM3 / Fold change vs veh, EDEM3 / RFU, TMEM33 / Fold change vs veh, TMEM33 / RFU, WDR75 / Fold change vs veh, WDR75 / RFU, AHCTF1 / Fold change vs veh, AHCTF1 / RFU, TFRC / Fold change vs veh, TFRC / RFU, ZDHHC17 / Fold change vs veh, ZDHHC17 / RFU, NOM1 / Fold change vs veh, NOM1 / RFU, ARL8B / Fold change vs veh, ARL8B / RFU, ZBTB11 / Fold change vs veh, ZBTB11 / RFU, TAMM41 / Fold change vs veh, TAMM41 / RFU, KIAA1704 /// LOC100996395 / Fold change vs veh, KIAA1704 /// LOC100996395 / RFU, ING1 / Fold change vs veh, ING1 / RFU, TRMT61B / Fold change vs veh, TRMT61B / RFU, FUBP3 / Fold change vs veh, FUBP3 / RFU, TP53 / Fold change vs veh, TP53 / RFU, TNKS2 / Fold change vs veh, TNKS2 / RFU, ZFP14 / Fold change vs veh, ZFP14 / RFU, ACTR2 / Fold change vs veh, ACTR2 / RFU, PPP3R1 / Fold change vs veh, PPP3R1 / RFU, PIK3R1 / Fold change vs veh, PIK3R1 / RFU, HNRNPA1 / Fold change vs veh, HNRNPA1 / RFU, RNF170 / Fold change vs veh, RNF170 / RFU, ZNF28 / Fold change vs veh, ZNF28 / RFU, RNGTT / Fold change vs veh, RNGTT / RFU, OGT / Fold change vs veh, OGT / RFU, BRD1 / Fold change vs veh, BRD1 / RFU, MARS / Fold change vs veh, MARS / RFU, ZNF655 / Fold change vs veh, ZNF655 / RFU, FAHD1 / Fold change vs veh, FAHD1 / RFU, BDP1 / Fold change vs veh, BDP1 / RFU, LRRCC1 / Fold change vs veh, LRRCC1 / RFU, ARID1A / Fold change vs veh, ARID1A / RFU, ZNF146 / Fold change vs veh, ZNF146 / RFU, ZNF330 / Fold change vs veh, ZNF330 / RFU, GPN3 / Fold change vs veh, GPN3 / RFU, C9orf123 / Fold change vs veh, C9orf123 / RFU, N4BP2L2 / Fold change vs veh, N4BP2L2 / RFU, ARFIP1 / Fold change vs veh, ARFIP1 / RFU, FAM179B / Fold change vs veh, FAM179B / RFU, BCL10 / Fold change vs veh, BCL10 / RFU, UHRF1BP1L / Fold change vs veh, UHRF1BP1L / RFU, BET1 / Fold change vs veh, BET1 / RFU, CNOT2 / Fold change vs veh, CNOT2 / RFU, ZNF268 / Fold change vs veh, ZNF268 / Fold change vs veh, ZNF507 / RFU, DGCR2 / Fold change vs veh, DGCR2 / RFU, WDSUB1 / Fold change vs veh, WDSUB1 / Fold change vs veh, HSP90B1 /// MIR3652 / RFU, ADSS / Fold change vs veh, ADSS / RFU, GK / Fold change vs veh, GK / RFU, ZNF148 / Fold change vs veh, ZNF148 / RFU, TAF9 / Fold change vs veh, TAF9 / RFU, SLC1A5 / Fold change vs veh, SLC1A5 / RFU, SLMO2 / Fold change vs veh, SLMO2 / RFU, ABCC4 / Fold change vs veh, ABCC4 / RFU, LOC101060439 /// RAP1B / Fold change vs veh, LOC101060439 /// RAP1B / RFU, RFX7 / Fold change vs veh, RFX7 / RFU, GTPBP10 / Fold change vs veh, GTPBP10 / RFU, CNEP1R1 / Fold change vs veh, CNEP1R1 / RFU, BIVM-ERCC5 /// ERCC5 / Fold change vs veh, BIVM-ERCC5 /// ERCC5 / RFU, ILF3 / Fold change vs veh, ILF3 / RFU 11762660_at / Fold change /veh 11762660_at / RFU VCAN (11757783_s_at) / Fold change /veh VCAN (11757783_s_at) / RFU DDX43 (11728927_at) / Fold change /veh DDX43 (11728927_at) / RFU KRT8 (11758188_x_at) / Fold change /veh KRT8 (11758188_x_at) / RFU NKD1 (11759106_at) / Fold change /veh NKD1 (11759106_at) / RFU SRD5A1 (11742802_a_at) / Fold change /veh SRD5A1 (11742802_a_at) / RFU TPSAB1 /// TPSB2 (11721975_s_at) / Fold change /veh TPSAB1 /// TPSB2 (11721975_s_at) / RFU GSTM3 (11746129_a_at) / Fold change /veh GSTM3 (11746129_a_at) / RFU IL23R (11737362_x_at) / Fold change /veh IL23R (11737362_x_at) / RFU TMEM51 (11727254_a_at) / Fold change /veh TMEM51 (11727254_a_at) / RFU PIWIL2 (11732686_x_at) / Fold change /veh PIWIL2 (11732686_x_at) / RFU ORM1 (11744905_x_at) / Fold change /veh ORM1 (11744905_x_at) / RFU CCDC152 (11743942_at) / Fold change /veh CCDC152 (11743942_at) / RFU ECM1 (11717891_a_at) / Fold change /veh ECM1 (11717891_a_at) / RFU IL23R (11748794_a_at) / Fold change /veh IL23R (11748794_a_at) / RFU TNFAIP8L3 (11732012_x_at) / Fold change /veh TNFAIP8L3 (11732012_x_at) / RFU MBOAT4 (11741988_at) / Fold change /veh MBOAT4 (11741988_at) / RFU 11764193_at / Fold change /veh 11764193_at / RFU TMEM53 (11763286_at) / Fold change /veh TMEM53 (11763286_at) / RFU MAGEB2 (11727129_at) / Fold change /veh MAGEB2 (11727129_at) / RFU TMEM200A (11744735_a_at) / Fold change /veh TMEM200A (11744735_a_at) / RFU CCDC152 (11751479_a_at) / Fold change /veh CCDC152 (11751479_a_at) / RFU FAM211A (11726209_a_at) / Fold change /veh FAM211A (11726209_a_at) / RFU RGS16 (11746705_a_at) / Fold change /veh RGS16 (11746705_a_at) / RFU VCAN (11755009_s_at) / Fold change /veh VCAN (11755009_s_at) / RFU RHOB (11743442_s_at) / Fold change /veh RHOB (11743442_s_at) / RFU RGS16 (11720943_a_at) / Fold change /veh RGS16 (11720943_a_at) / RFU RGS16 (11720944_at) / Fold change /veh RGS16 (11720944_at) / RFU, VPS4B / Fold change vs veh, VPS4B / RFU, CREB1 / Fold change vs veh, CREB1 / RFU, DNAJC13 / Fold change vs veh, DNAJC13 / RFU, GNAQ / Fold change vs veh, GNAQ / RFU, CDK5R1 / Fold change vs veh, CDK5R1 / RFU, ZRANB3 / Fold change vs veh, ZRANB3 / RFU, CUL4A / Fold change vs veh, CUL4A / RFU, CCNY / Fold change vs veh, CCNY / RFU, UFL1 / Fold change vs veh, UFL1 / RFU, COG3 / Fold change vs veh, COG3 / RFU, DIAPH2 / Fold change vs veh, DIAPH2 / RFU, SKA2 / Fold change vs veh, SKA2 / RFU, AFF3 / Fold change vs veh, AFF3 / RFU, LMF1 / Fold change vs veh, LMF1 / RFU, IPO11 / Fold change vs veh, IPO11 / RFU, DFFB / Fold change vs veh, DFFB / RFU, FOXP1 / Fold change vs veh, FOXP1 / RFU, CARD8 / Fold change vs veh, CARD8 / RFU, STRN3 / Fold change vs veh, STRN3 / RFU, ADK / Fold change vs veh, ADK / RFU, RASSF2 / Fold change vs veh, RASSF2 / RFU, WIPF1 / Fold change vs veh, WIPF1 / RFU, LARP1B / Fold change vs veh, LARP1B / RFU, RASA1 / Fold change vs veh, RASA1 / RFU, RB1 / Fold change vs veh, RB1 / RFU, PPFIA1 / Fold change vs veh, PPFIA1 / RFU, MAT2A / Fold change vs veh, MAT2A / RFU, CCT5 / Fold change vs veh, CCT5 / RFU, WDR92 / Fold change vs veh, WDR92 / RFU, CUX1 / Fold change vs veh, CUX1 / RFU, TTC7A / Fold change vs veh, TTC7A / RFU, TMEM135 / Fold change vs veh, TMEM135 / RFU, DEPTOR / Fold change vs veh, DEPTOR / RFU, CPM / Fold change vs veh, CPM / RFU, DNAJB6 / Fold change vs veh, DNAJB6 / RFU, CACNA2D3 / Fold change vs veh, CACNA2D3 / RFU, DTX4 / Fold change vs veh, DTX4 / RFU, TFCP2 / Fold change vs veh, TFCP2 / RFU, GMCL1 /// GMCL1P1 / Fold change vs veh, GMCL1 /// GMCL1P1 / RFU, AEBP2 / Fold change vs veh, AEBP2 / RFU, SNHG1 /// SNORD22 /// SNORD25 /// SNORD26 /// SNORD27 /// SNORD28 /// SNORD29 /// SNORD31 / Fold change vs veh, SNHG1 /// SNORD22 /// SNORD25 /// SNORD26 /// SNORD27 /// SNORD28 /// SNORD29 /// SNORD31 / Fold change (Aza/veh), C12orf56 (ProbeSet 11735607_a_at) / Fold change (ACY-1035/veh), C12orf56 (ProbeSet 11735607_a_at) / Fold change (Aza/veh), FGFR1OP (ProbeSet 11751329_s_at) / Fold change (ACY-1035/veh), FGFR1OP (ProbeSet 11751329_s_at) / Fold change (Aza/veh), VPS36 (ProbeSet 11739960_a_at) / Fold change (ACY-1035/veh), VPS36 (ProbeSet 11739960_a_at) / RFU SYPL1 (11715823_x_at) / Fold change /veh SYPL1 (11715823_x_at) / RFU IGFBP7 (11715501_s_at) / Fold change /veh IGFBP7 (11715501_s_at) / RFU REEP3 (11722064_at) / Fold change /veh REEP3 (11722064_at) / RFU IGLL1 (11728026_x_at) / Fold change /veh IGLL1 (11728026_x_at): dose or concentration left out as unconfirmed
Details: ProbeSet 11727545_at; LIST B

For `Nc1ccc(-c2cccs2)cc1NC(=O)c1ccc2c(c1)cc(C1CC1)n2CCN1CCOCC1` [ACY-1035], the “Fold change vs veh, PANK3” value was 0.83.
